Laboratory results from US20200024315A1, “ANTIMICROBIAL PEPTIDES AND METHODS OF TREATING GRAM-NEGATIVE PATHOGENS” (THE REGENTS OF THE UNIVERSITY OF COLORADO, a body corporate, priority 2017, published 2020).
Blank lines part the entries; values can stand above or below the molecule they belong to. Square brackets hold non-standard residues; d marks the D form. Orn = NCCC[C@H](N)C(=O)O

Experiments:
[1] = Circular dichroism (CD) spectroscopy, characterization of helical structure; assay type: physicochemical; settings: for α-helical content (% helix) in aqueous conditions: aqueous benign buffer pH 7.0, 5° C.; for helical structure in hydrophobic medium containing 50% TFE: buffer pH 7.0 / 50% TFE, 5° C.; for inducible helical structure Δ[Θ]222 nm TFE-Aqueous: difference 50% TFE minus aqueous buffer
[2] = Temperature profiling in RP-HPLC (peptide self-association); assay type: physicochemical; settings: RP-HPLC pH 2, 5° C.-77° C., maximum change in retention time relative to random coil standards
Text: Peptide self-association, the ability to oligomerize/dimerize in aqueous solution, is an important parameter that can improve antimicrobial activity while removing toxicity. The inventors hypothesize that the monomeric random-coil antimicrobial peptides in aqueous solution are best suited to pass through a polysaccharide capsule, the outer membrane lipopolysaccharide and the cell wall peptidoglycan layer of microorganisms prior to penetration into the cytoplasmic membrane, induction of alpha-helical structure and disruption of membrane structure to kill target cells. […] In the present study, the ability of the AMPs to self-associate was determined by a technique developed in the inventors' laboratory, referred to as RP-HPLC temperature profiling at pH 2 over the temperature range of 5° C. to 80° C. […]
Purified peptides were analyzed on an Agilent 1200 series liquid chromatograph for temperature profiling using a Zorbax 300 SB-C8 column (150 mm×2.1 mm I.D.; 5 μm particle size, 300 Å pore size) from Agilent Technologies. […]
FIGS. 5-8 illustrate self-association profiles of the α-helical AMP analogs as determined by temperature profiling in RP-HPLC. […]

human erythrocytes = test: Hemolytic activity against human erythrocytes; assay type: cell-based; settings: 1% human erythrocytes, 18 h, 37° C.
Protocol: Peptide samples (concentrations determined by amino acid analysis) were added to 1% human erythrocytes in phosphate-buffered saline (100 mM NaCl, 80 mM Na2HPO4, 20 mM NaH2PO4, pH 7.4) and the reaction mixtures were incubated at 37° C. for 18 h in microtiter plates. Two-fold serial dilutions of the peptide samples were carried out. This determination was made by withdrawing aliquots from the hemolysis assays and removing unlysed erythrocytes by centrifugation (800×g). Hemoglobin release was determined spectrophotometrically at 570 nm. The control for 100% hemolysis was a sample of erythrocytes treated with water. The control for no release of hemoglobin was a sample of 1% erythrocytes without any peptide added. Since erythrocytes were in an isotonic medium, no detectable release (<1% of that released upon complete hemolysis) of hemoglobin was observed from this control during the assay. The hemolytic activity is generally determined as the peptide concentration that causes 50% hemolysis of erythrocytes after 18 h (HC50). HC50 was determined from a plot of percent lysis versus peptide concentration (microM). If 50% hemolysis could not be reached, the inventors used HC30 values (30% hemolysis).

[3] = test system: A. baumannii compared to P. aeruginosa; test: Selectivity (MICGM P. aeruginosa/MICGM A. baumannii); assay type: cell-based, Acinetobacter baumannii
Pseudomonas aeruginosa = test: Antimicrobial activity against Pseudomonas aeruginosa; assay type: cell-based
Protocol: In the current study de novo designed AMPs were tested against seven diverse clinical isolates of the Gram-negative pathogen A. baumannii and seven A. baumannii strains resistant to polymyxin B and polymyxin E (Colistin). In addition, the inventors tested these AMPs against six diverse clinical isolates of the Gram-negative pathogen, P. aeruginosa, and nine Gram-positive methicillin-sensitive S. aureus clinical isolates and eight Gram-positive methicillin/oxacillin-resistant S. aureus strains. This testing allows for the determination of pathogen selectivity between Gram-negative and Gram-positive pathogens as the location of the positively charged residues on the polar face is varied.
The minimal inhibitory concentration (MIC) is defined as the lowest peptide concentration that inhibited bacterial growth. MICs were measured by a standard microtiter dilution method in Mueller Hinton (MH) medium. Briefly, cells were grown overnight at 37° C. in MH broth and were diluted in the same medium. Serial dilutions of the peptides were added to the microtiter plates in a volume of 50 microL, followed by the addition of 50 microL of bacteria to give a final inoculum of 5×10^5 colony-forming units (CFU)/mL. The plates were incubated at 37° C. for 24 h, and the MICs were determined.

D26 (K13A, K16A) = test: RP-HPLC temperature profiling 5-77 C, pH 2; self-association (monomer-dimer) of the peptide
D52 = test: as above

Molecule: Ac-ALKKLLSTLSSAKSSKLSTLLKALKK-amide (Ac-ALKKLLSTLSSAKSSKLSTLLKALKK-NH2) [D52]
α-helical content (% helix) in aqueous conditions [1]: 13.7%
helical structure in hydrophobic medium containing 50% TFE [1]: 100%
inducible helical structure Δ[Θ]222 nm TFE-Aqueous [1]: 1422
peptide self-association parameter PA [2]: 7.78 min

Molecule: Ac-KLKSLLSTLSSAKKKKLSTLLSALSK-NH2 [D26]
α-helical content (% helix) in aqueous conditions [1]: 8.9%
hemolytic activity HC50 (human erythrocytes): > 1776 µM
improvement in selectivity (MICGM P. aeruginosa/MICGM A. baumannii) [3]: 25 fold
activity against Pseudomonas aeruginosa (in words) (Pseudomonas aeruginosa): inactive

Molecule: Ac-AL[Orn][Orn]LLSTLSSAKSSKLSTLL[Orn]AL[Orn][Orn]-NH2 [D59]
α-helical content (% helix) in aqueous conditions [1]: 6.9%
inducible helical structure Δ[Θ]222 nm TFE-Aqueous [1]: 1061

Molecule: Ac-KLKSLLSTLSSAAKKALSTLLSALSK-NH2 [D26 (K13A, K16A)]
helical structure in aqueous buffer conditions (in words) ([1]; 50 mM potassium phosphate buffer, pH 7.0, 100 mM KCl): α-helical

Molecule: Ac-ALKKLLSTLSSARSSRLSTLLKALKK-NH2 [D58]
α-helical content (% helix) in aqueous conditions [1]: 7.2%
inducible helical structure Δ[Θ]222 nm TFE-Aqueous [1]: 750

Molecule: Ac-KLKSLLKTLSKAKKKKLKTLLKALSK-NH2 [D16, reference compound]
selectivity factor (MICGM P. aeruginosa/MICGM A. baumannii) [3]: 2.7

Molecule: Ac-ALKKLLSTLSSA[Orn]SS[Orn]LSTLLKALKK-NH2 [D56]
α-helical content (% helix) in aqueous conditions [1]: 3.5%
helical structure in hydrophobic medium containing 50% TFE [1]: 27.2%

PA (peptide self-association parameter) (D26 (K13A, K16A)): 27 min
Molecule: Ac-[dK][dL][dK][dS][dL][dL][dS][dT][dL][dS][dS][dA][dA][dK][dK][dA][dL][dS][dT][dL][dL][dS][dA][dL][dS][dK]-NH2 [D26 (K13A, K16A)]

PA (peptide self-association parameter) (D52): 7.78 min
B1: D52 (peptide)
chain: Ac-[dA][dL][dK][dK][dL][dL][dS][dT][dL][dS][dS][dA][dK][dS][dS][dK][dL][dS][dT][dL][dL][dK][dA][dL][dK][dK]-NH2
SMILES: CC(=O)N[C@H](C)C(=O)N[C@H](CC(C)C)C(=O)N[C@H](CCCCN)C(=O)N[C@H](CCCCN)C(=O)N[C@H](CC(C)C)C(=O)N[C@H](CC(C)C)C(=O)N[C@H](CO)C(=O)N[C@@H](C(=O)N[C@H](CC(C)C)C(=O)N[C@H](CO)C(=O)N[C@H](CO)C(=O)N[C@H](C)C(=O)N[C@H](CCCCN)C(=O)N[C@H](CO)C(=O)N[C@H](CO)C(=O)N[C@H](CCCCN)C(=O)N[C@H](CC(C)C)C(=O)N[C@H](CO)C(=O)N[C@@H](C(=O)N[C@H](CC(C)C)C(=O)N[C@H](CC(C)C)C(=O)N[C@H](CCCCN)C(=O)N[C@H](C)C(=O)N[C@H](CC(C)C)C(=O)N[C@H](CCCCN)C(=O)N[C@H](CCCCN)C(N)=O)[C@H](C)O)[C@H](C)O
